Experimental data from patent US20090075941A1, “TREATING NEOPLASMS” (THE UAB RESEARCH FOUNDATION, priority 2006, published 2009).

Columns and labels:
J774 cells = assay: Cell viability, MTS-assay; type: cell-based
Method: (§1) Cell viability assays. Cells were plated on 96-well plates at the density of 1×10^3 cells in 100 μl per well in normal culture medium, with or without of the indicated concentrations of the various bisphosphonate combinations and or 1 mM CaCl2, 1 mM EGTA or vehicle and cultured for 48 h. Cell viability was assessed with 3-(4,5-dimethylthiazol-2-yl)-5-(3-carboxy tetrazolium, inner salt (MTS)-assays (CellTiter Aqueous One 96 from Promega; Madison, Wis.) according to the manufacturer's instructions. For each treatment, a PBS-control group was run simultaneously on the same plate. The results for each treatment were calculated as % of the corresponding PBS-group.

[1] = test system: unprenylated Rap1A in AB-12 mesothelioma cells; assay: Western blot, unprenylated Rap1A (Example 2); type: cell-based, mouse; settings: AB-12 cells; 24 h
Method: Western blot analysis. Cells were cultured on 6-well plates in normal culture medium until near confluency. The cells were then rinsed with sterile PBS and cultured for further 24 h in serum-tree culture medium, in the presence or absence of the indicated bisphosphonates. Some cultures were also treated with 25 μM geranylgeraniol (cold, all trans), 1.0 μg/ml LPS (Sigma; St. Louis, Mo.) 10 ng/ml IL-1β (R&D Systems; Minneapolis, Minn.) or TNF-α (R&D Systems). To study bisphosphonate effects on connexin-43 expression, the cells were cultured for 24 h in serum-free culture medium in the presence of the indicated bisphosphonates or PBS as a vehicle control. Culture medium was then discarded, the cells were quickly lysed and prepared into Western blot samples, as described in Merrell et al. (2000) Breast Cancer Res. Treat. 81, 231-241. After boiling the supernatants in reducing sodium docedyl sulfate (SDS) sample buffer, equal amounts of protein (˜20-50 μg) were loaded per lane and the samples were electrophoresed on 10% SDS polyacrylamide gel and transferred to a nitrocellulose membrane. To detect, unprenylated Rap1A, the blots were incubated overnight at 4° C. with the antibody SC-1482 (Santa Cruz Technology (San Diego, Calif.)), diluted 1:1000 in Tris-buffered saline, 0.1% (v/v) Tween-20 (TEST), and then with peroxidase-conjugated anti-goat serum (Pierce; Rockford, Ill.), diluted 1:1000 in TBST. Total Rap1 was detected from stripped blots in a similar fashion, with the antibody SC-65 (Santa Cruz Technology). The phosphorylation status of p38 was investigated using anti-phospho-p38 (Cell Signaling; Beverly, Mass.) and after stripping of the membrane, with anti-total p38 antibodies (Cell Signaling), according to the manufacturer's instructions. Expression of connexin-43 was detected with a rabbit anti-connexin-43 antibody (Zymed Laboratories, Inc.; San Francisco, Calif.), diluted 1:1000 in TBST. The protein bands were visualized by chemiluminescence using SuperSignal West Pico ECL kit (Pierce Biotechnology, Inc.; Rockford, Ill.).

AC29 cells = assay: In vitro growth assay, BrdU incorporation; type: cell-based, mouse; settings: with p38 inhibitor SB202190 10^−5 M vs inactive control compound, 5 days
Method: (§2) In vitro growth assay. […] Briefly, […] were plated onto 96-well plates in 100 μl of normal culture medium. The cells were then treated with the indicated agents for various times. BrdU was added to the wells for the final 24 h and incorporated BrdU was detected with sequential additions of monoclonal mouse anti-BrdU antibody and HRP-conjugated anti-mouse antibody. After addition of the substrate for HRP, intensity of the colored reaction product, which is proportional to the amount of BrdU incorporated into the cells, was read with spectrophotometer at […].

AB12 cells = assay: In vitro growth assay, BrdU incorporation; type: cell-based, mouse; settings: with p38 inhibitor SB202190 10^−5 M vs inactive control compound, 5 days
Method: as §2

MDA-MB-231 cells = assay: Cell viability, MTS-assay; type: cell-based, human
Method: as §1

[2] = N-BP 10^−4 M + clodronate 10^−3 M
[3] = N-BP 10^−4 M + etidronate 10^−3 M

O=P(O)(O)C(O)(Cc1cccnc1)P(=O)(O)O [risedronate]
effect of added EGTA on the bisphosphonate's growth inhibitory effect (J774 cells; 1 mM EGTA, N-BP 10^−4 M or clodronate 10^−3 M): reversed | cell viability (J774 cells; 10^−4 M): significantly decreased cellular viability | effect of excess clodronate on the viability change induced by the nitrogen-containing bisphosphonate (J774 cells; [2]): significantly reversed | effect of excess etidronate on the viability change induced by the nitrogen-containing bisphosphonate (J774 cells; [3]): reversed | accumulation of unprenylated Rap1A [1]: dose-dependent accumulation | BP-induced growth inhibition on inhibition of p38 (AC29 cells): augmented | BP-induced growth inhibition on inhibition of p38 (AB12 cells): augmented | effect of added Ca2+ on the bisphosphonate's growth inhibitory effect (MDA-MB-231 cells; 1 mM CaCl2, N-BP 10^−4 M or p-BP 10^−3 M): enhanced | effect of excess clodronate on the viability change induced by the nitrogen-containing bisphosphonate (MDA-MB-231 cells; [2]): did not interfere | effect of excess etidronate on the viability change induced by the nitrogen-containing bisphosphonate (MDA-MB-231 cells; [3]): increased
